Our source for the IC50 values is patent US11667643B2, “RIP1K inhibitors” (priority 2020, dated 2023).

Read-outs that look alike come from different tables or passages of the source.

For assay [1], the system named is U937 cells. Kind of assay: U937 cell necroptosis assay (TNFa + zVAD, CellTiter-Glo recovery), functional human RIP1 assay. It is filed as cell-based. Conditions: Homo sapiens, U-937, 18 h, read-out: U937 Zvad TNF CTG Recovery, U937, TNFa + zVAD (IC50), U937 cells, zVAD-fmk, TNFa 2 ng/mL, 18 hours, CellTiter-Glo. On the procedure:
(§1) In this example, U937 and L929 cells were exposed to compounds of the present disclosure and a cell necroptosis assay was conducted to evaluate compound activity in functional human RIP1 and murine RIP1 assays.
(§2) U937 and L929 cells were obtained from the American Type Culture Collection (Manassa, Va., USA). Both cells were maintained in logarithmic growth phase in complete RPMI 1640 media (Sigma, ST Louis, Mo., USA) supplemented with 10% fetal bovine serum (Sigma, ST Louis, Mo., USA) at 37° C. with 5% CO2. For necroptosis assay, L929 cells were plated for 18 h in 100 μL/well medium at 10K cells/well in Costar 96-well black clear-bottom plates (Fisher Scientific, Hampton, N.H., USA); U937 cells were plated on the day of the assay in 50 μL/well medium containing 60 uM zVAD-fmk (Lonza, Basel, Switzerland) at 50K cells/well. Medium from L929 cells were removed from the 96-well plates and replaced with 50 μL/well new medium containing 40 uM zVAD-fmk. Each compound of the present disclosure evaluated in this example was serially diluted in DMSO from 2.5 mM in 4-fold dilutions, and then diluted 1:125 in complete medium. 50 μL/well 2× of the compound was then added to the cells in the plates. The cells were pre-incubated with the compound for 1 hour at 37° C. with 5% CO2 and before addition of 10 μL/well 11×TNFa (Peprotech, Rocky Hill, N.J., USA) to give a final concentration of 2 ng/mL for TNFa. The relative amount of necroptosis cells was determined by luminescent using a Wallac Victor2 Luminometer (PerkinElmer, Waltham, Mass., USA) and a CellTiter-Glo® Luminescent Cell Viability Reagent Assay (Promega, Madison, Wis., USA) added per manufacturer instructions after 18 hours of TNFa stimulation at 37° C. with 5% CO2. This example establishes that embodiments of the compounds described herein have unexpectedly potent activity against human RIP1 and murine RIP1, which allows their assessment in in vivo mouse models of disease.

In assay [2] the test system is L929 cells. Kind of assay: L929 cell necroptosis assay (TNFa + zVAD, CellTiter-Glo recovery), functional murine RIP1 assay. It is filed as cell-based. Conditions: Mus musculus, L929, 18 h, read-out: L929-CTG-recovery, L929, TNFa + zVAD (IC50), L929 cells, zVAD-fmk, TNFa 2 ng/mL, 18 hours, CellTiter-Glo. On the procedure:
as §1, §2

The target of assay [3] is RIPK1 (Homo sapiens (Human), UniProt Q13546). Kind of assay: biochemical. In kind it is biochemical. On the procedure:
In this example, compounds of the disclosure were evaluated using a biochemical assay using the ADP-Glo™ technology.
ADP-Glo™ (Promega, Madison, Wis., USA) reagents were thawed at ambient temperature. Kinase Detection Reagent was prepared by mixing kinase detection buffer with the lyophilized kinase detection substrate.
A […] stock volume of 5× Reaction Kinase Buffer was made by mixing 1000 μl of 1M MgCl2, 500 μl of 1M Tris-HCL pH7.4, 0.5 mg/ml (25 mg) of BSA, and 3475 μl of distilled H2O. A 3 ml 2× working stock volume of Reaction Kinase Buffer was made containing a final concentration of 100 μM DTT and 4 mM MnCl2.
Components of RIPK1 enzyme (Rigel Pharmaceuticals, South San Francisco, Calif., USA) were thawed on ice. Diluted RIPK1 was prepared in 1× Kinase Reaction Buffer (diluted from 2× buffer) to 31 ng/well.
1.0 ul of diluted compound was added to a 384 well plate in duplicate. […] The final reaction volume was 5.0 μl. The plate was quickly centrifuged and the reaction was incubated at 30° C. for 30 minutes. Adding 5 μl of ADP-Glo™ terminated the reaction. The plate was quickly centrifuged and the reaction was incubated at room temperature for 40 minutes. Kinase Detection Reagent was then added and incubated at room temperature for 30 minutes. The relative light unit (RLU) of kinase reaction was determined by luminescent (Luminescence 0.1 s) using a Wallac Victor2 Luminometer (PerkinElmer, Waltham, Mass., USA).

[4] abbreviates: RIPK1 enzyme 31 ng/well, 30° C. for 30 minutes, luminescence, read-out: RIPK1 ADP-Glo Kinase (IC50).

Chain of RIPK1 (Q13546 whole entry, species assumed): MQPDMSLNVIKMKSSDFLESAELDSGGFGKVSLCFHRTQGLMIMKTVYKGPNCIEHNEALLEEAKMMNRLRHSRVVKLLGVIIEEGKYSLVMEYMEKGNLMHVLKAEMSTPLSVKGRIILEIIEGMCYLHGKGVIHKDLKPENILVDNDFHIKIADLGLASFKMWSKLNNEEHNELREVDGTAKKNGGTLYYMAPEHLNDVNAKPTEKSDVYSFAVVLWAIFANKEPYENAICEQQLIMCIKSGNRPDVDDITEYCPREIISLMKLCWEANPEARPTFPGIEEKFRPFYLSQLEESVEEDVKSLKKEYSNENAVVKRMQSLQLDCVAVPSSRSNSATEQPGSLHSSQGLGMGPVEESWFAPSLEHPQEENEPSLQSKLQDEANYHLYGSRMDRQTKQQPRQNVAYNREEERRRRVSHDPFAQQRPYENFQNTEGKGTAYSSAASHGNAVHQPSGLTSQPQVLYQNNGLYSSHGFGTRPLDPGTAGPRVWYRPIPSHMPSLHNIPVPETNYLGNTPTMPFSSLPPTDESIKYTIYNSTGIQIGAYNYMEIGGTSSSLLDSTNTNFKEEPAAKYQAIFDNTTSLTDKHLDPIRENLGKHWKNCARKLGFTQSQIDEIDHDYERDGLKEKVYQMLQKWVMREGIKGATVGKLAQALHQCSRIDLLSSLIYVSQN

For `O=C(NC1CCc2ccccc2-n2cnnc21)c1ncn(Cc2c(Cl)cccc2Cl)n1` (racemic) [Compound I-58, (±)-1-(2,6-Dichlorobenzyl)-N-(5,6-dihydro-4H-benzo[f][1,2,4]triazolo[4,3-a]azepin-4-yl)-1H-1,2,4-triazole-3-carboxamide], the IC50 in assay [1] was 0.0743 µM; in assay [2], 10000 µM; in assay [3] (setting [4]) it was 0.0573 µM.
On to `O=C(NC1CCc2ccccc2-n2cnnc21)c1cc(Oc2ccccc2)ccn1` (racemic) [Compound I-59, (±)-N-(5,6-Dihydro-4H-benzo[f][1,2,4]triazolo[4,3-a]azepin-4-yl)-4-phenoxypicolinamide], for which the IC50 in assay [1] was found to be 0.829 µM; in assay [2], 10000 µM; in assay [3] (setting [4]) it was 0.118 µM.
Take `Cn1nc2n(c1=O)-c1ccccc1CCC2NC(=O)c1ncn(Cc2c(Cl)cccc2Cl)n1` (racemic) [Compound I-60, (±)-1-(2,6-Dichlorobenzyl)-N-(2-methyl-1-oxo-2,4,5,6-tetrahydro-1H-benzo[f][1,2,4]triazolo[4,3-a]azepin-4-yl)-1H-1,2,4-triazole-3-carboxamide]: the IC50 was determined as 35.8 µM in assay [1], 10000 µM in assay [2] and 1.29 µM in assay [3] (setting [4]).
As to `O=C(NC1CCc2ccc(N3CCC4(CCOCC4)CC3)cc2-n2ccnc21)c1ncn(Cc2c(Cl)cccc2Cl)n1` (racemic) [Compound I-61, (±)-N-(9-(3-Oxa-9-azaspiro[5.5]undecan-9-yl)-5,6-dihydro-4H-benzo[f]imidazo[1,2-a]azepin-4-yl)-1-(2,6-dichlorobenzyl)-1H-1,2,4-triazole-3-carboxamide], the IC50 in assay [1] was determined as 0.0181 µM; in assay [2] it was 0.106 µM; in assay [3] (setting [4]) it was 0.0862 µM.
In the case of `O=C(NC1CCc2ccc(N3CCC4(CCOCC4)CC3)cc2-n2ccnc21)c1cc(Oc2ccccc2)ccn1` (racemic) [Compound I-62, (±)-N-(9-(3-Oxa-9-azaspiro[5.5]undecan-9-yl)-5,6-dihydro-4H-benzo[f]imidazo[1,2-a]azepin-4-yl)-4-phenoxypicolinamide], the figures for the IC50 in assay [1], in assay [2] and in assay [3] (setting [4]) were 0.0301 µM, 10.1 µM and 0.0695 µM, respectively.
Take `O=C(NC1CCc2ccccc2-n2cnnc21)c1ncn(Cc2ccccc2)n1` (racemic) [Compound I-63, (±)-1-Benzyl-N-(5,6-Dihydro-4H-benzo[f][1,2,4]triazolo[4,3-a]azepin-4-yl)-1H-1,2,4-triazole-3-carboxamide]: the IC50 was 0.289 µM in assay [1], 10000 µM in assay [2] and 0.134 µM in assay [3] (setting [4]).
With `O=C(NC1CCc2ccc(N3CCC4(CCOCC4)CC3)cc2-n2ccnc21)c1n[nH]c(Cc2ccccc2)n1` (racemic) [Compound I-64, (±)-N-(9-(3-Oxa-9-azaspiro[5.5]undecan-9-yl)-5,6-dihydro-4H-benzo[f]imidazo[1,2-a]azepin-4-yl)-5-benzyl-1H-1,2,4-triazole-3-carboxamide], the results for the IC50 in assay [1], in assay [2] and in assay [3] were 0.0077 µM, 4.06 µM and 0.124 µM, respectively.
With `O=C(NC1CCc2ccc(N3CCC4(CCOCC4)CC3)cc2-n2c1noc2=O)c1n[nH]c(Cc2ccccc2)n1` (racemic) [Compound I-65, (±)-5-Benzyl-N-(1-oxo-9-(3-oxa-9-azaspiro[5.5]undecan-9-yl)-5,6-dihydro-1H,4H-benzo[f][1,2,4]oxadiazolo[4,3-a]azepin-4-yl)-1H-1,2,4-triazole-3-carboxamide], the IC50 came to 0.0211 µM in assay [1], 3.26 µM in assay [2] and 0.0678 µM in assay [3] (setting [4]).
As to `O=C(NC1Cc2ccccc2-n2ccnc21)c1n[nH]c(Cc2ccccc2)n1` (racemic) [Compound I-66, (±)-5-Benzyl-N-(4,5-dihydroimidazo[1,2-a]quinolin-4-yl)-1H-1,2,4-triazole-3-carboxamide], the IC50 in assay [1] was determined as 10000 µM; in assay [2] it was 10000 µM; in assay [3] (setting [4]) it was 13.5 µM.
With `O=C(NC1Cc2ccccc2-n2ccnc21)c1cc(Oc2ccccc2)ccn1` (racemic) [Compound I-67, (±)-N-(4,5-Dihydroimidazo[1,2-a]quinolin-4-yl)-4-phenoxypicolinamide], the IC50 in assay [1] is 10000 µM; in assay [2], 10000 µM; in assay [3] (setting [4]) it was 11.4 µM.
`CC(C)(O)CCc1ccc2c(c1)-n1ccnc1C(NC(=O)c1n[nH]c(Cc3ccccc3)n1)CC2` (racemic) [Compound I-68, (±)-5-Benzyl-N-(9-(3-hydroxy-3-methylbutyl)-5,6-dihydro-4H-benzo[f]imidazo[1,2-a]azepin-4-yl)-1H-1,2,4-triazole-3-carboxamide]: the IC50 in assay [1] came out at 0.0252 µM; in assay [2] it was 8.67 µM; in assay [3] (setting [4]), 0.118 µM.
For `O=C(NC1CCc2ccccc2-n2c(Cl)cnc21)c1cc(Cc2ccccc2)on1` (racemic) [Compound I-71, (±)-5-Benzyl-N-(1-chloro-5,6-dihydro-4H-benzo[f]imidazo[1,2-a]azepin-4-yl)isoxazole-3-carboxamide], the values for the IC50 in assay [1], in assay [2] and in assay [3] (setting [4]) were 3.48 µM, 10000 µM and 0.58 µM, respectively.
For the compound `CC(C)(O)C#Cc1ccc2c(c1)-n1cnnc1C(NC(=O)c1n[nH]c(Cc3ccccc3)n1)CC2` (racemic) [Compound I-72, (±)-5-Benzyl-N-(9-(3-hydroxy-3-methylbut-1-yn-1-yl)-5,6-dihydro-4H-benzo[f][1,2,4]triazolo[4,3-a]azepin-4-yl)-1H-1,2,4-triazole-3-carboxamide], the IC50 in assay [1] turned out to be 0.708 µM; in assay [2] it was 10000 µM; in assay [3] (setting [4]), 0.219 µM.
Consider `O=C(NC1CCc2ccccc2-n2c1nc(Cl)c2Cl)c1ncn(Cc2c(Cl)cccc2Cl)n1` (racemic) [Compound I-73, (±)-N-(1,2-Dichloro-5,6-dihydro-4H-benzo[f]imidazo[1,2-a]azepin-4-yl)-1-(2,6-dichlorobenzyl)-1H-1,2,4-triazole-3-carboxamide], for which the IC50 in assay [1] is 0.903 µM; in assay [2], 10000 µM; in assay [3] (setting [4]) it was 0.0924 µM.
As to `O=C(NC1CCc2ccccc2-n2c(Cl)cnc21)c1ncn(Cc2c(Cl)cccc2Cl)n1` (racemic) [Compound I-74, (±)-N-(1-Chloro-5,6-dihydro-4H-benzo[f]imidazo[1,2-a]azepin-4-yl)-1-(2,6-dichlorobenzyl)-1H-1,2,4-triazole-3-carboxamide], the IC50 in assay [1] was 0.0898 µM; in assay [2], 8.62 µM; in assay [3] (setting [4]), 0.054 µM.
For `O=C(NC1CCc2ccc(N3CCC4(CCOCC4)CC3)cc2-n2ccnc21)c1ccn(Cc2ccccc2)n1` (racemic) [Compound I-77, (±)-N-(9-(3-Oxa-9-azaspiro[5.5]undecan-9-yl)-5,6-dihydro-4H-benzo[f]imidazo[1,2-a]azepin-4-yl)-1-benzyl-1H-pyrazole-3-carboxamide], in that order: 0.0096 µM, 4.08 µM and 0.111 µM.
Take `O=C(NC1CCc2ccccc2-n2c1nc(Cl)c2Cl)c1n[nH]c(Cc2ccccc2)n1` (racemic) [Compound I-80, (±)-5-Benzyl-N-(1,2-dichloro-5,6-dihydro-4H-benzo[f]imidazo[1,2-a]azepin-4-yl)-1H-1,2,4-triazole-3-carboxamide]: the IC50 in assay [1] was found to be 83.4 µM; in assay [2] it was 10000 µM; in assay [3] (setting [4]), 1.87 µM.
